Laboratory results taken from patent US7846946B2, “Heteroatom-linked substituted piperidines and derivatives thereof useful as histamine H3 antagonists” (Schering Plough Corporation, priority 2005, dated 2010).
pKi: −log10 of the molar value.

Legend:
[1] = molecular target: T1, recombinant human H3 receptor, expressed in HEK-293 cells (Homo sapiens, UniProt Q9Y5N1); experiment: H3-receptor binding assay, recombinant human receptor; details: recombinant human receptor assay (HEK-293)
T1 construct: expressed in transfected cells; host or cells: HEK-293 (human embryonic kidney) cells
T1 sequence (Q9Y5N1 whole entry): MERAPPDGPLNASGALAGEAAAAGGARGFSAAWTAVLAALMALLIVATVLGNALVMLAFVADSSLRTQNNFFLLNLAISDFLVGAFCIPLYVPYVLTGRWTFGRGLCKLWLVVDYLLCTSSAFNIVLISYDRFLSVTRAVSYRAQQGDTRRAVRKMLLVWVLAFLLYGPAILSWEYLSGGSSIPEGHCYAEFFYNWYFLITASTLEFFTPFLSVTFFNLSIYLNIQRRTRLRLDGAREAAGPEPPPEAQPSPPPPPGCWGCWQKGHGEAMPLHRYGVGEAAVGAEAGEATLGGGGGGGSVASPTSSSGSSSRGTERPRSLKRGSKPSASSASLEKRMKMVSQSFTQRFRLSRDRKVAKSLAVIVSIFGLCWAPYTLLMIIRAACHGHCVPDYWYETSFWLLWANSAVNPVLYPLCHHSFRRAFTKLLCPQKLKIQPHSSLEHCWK
Protocol: (§1) General Procedure for H3-Receptor Binding Assay
(§2) The source of the H3 receptors in this experiment was guinea pig brain. Alternatively, the source of H3 receptors was recombinant human receptor, expressed in HEK-293 (human embryonic kidney) cells.
All compounds to be tested were dissolved in DMSO and then diluted into the binding buffer (50 mM Tris, pH 7.5) such that the final concentration was 2 μg/ml with 0.1% DMSO. Membranes were then added (400 μg of protein, 5 μg in the case of recombinant human receptor) to the reaction tubes. The reaction was started by the addition of 3 nM [^3H]R-α-methyl histamine (8.8 Ci/mmol) or 3 nM [^3H]Na^α-methyl histamine (80 Ci/mmol) and continued under incubation at 30° C. for 30 min. Bound ligand was separated from unbound ligand by filtration, and the amount of radioactive ligand bound to the membranes was quantitated by liquid scintillation spectrometry. All incubations were performed in duplicate and the standard error was always less than 10%. Compounds that inhibited more than 70% of the specific binding of radioactive ligand to the receptor were serially diluted to determine a Ki (nM).

[2] = molecular target: T2, H3 receptors (guinea pig brain) (Cavia porcellus, UniProt Q9JI35); experiment: H3-receptor binding assay, guinea pig receptor; details: radioligand [3H]R-α-methyl histamine or [3H]Nα-methyl histamine
T2 construct: The brain tissue was homogenized with a solution of 50 mM Tris, pH 7.5; from tissue; host or cells: guinea pig brain membranes
T2 sequence (Q9JI35 whole entry): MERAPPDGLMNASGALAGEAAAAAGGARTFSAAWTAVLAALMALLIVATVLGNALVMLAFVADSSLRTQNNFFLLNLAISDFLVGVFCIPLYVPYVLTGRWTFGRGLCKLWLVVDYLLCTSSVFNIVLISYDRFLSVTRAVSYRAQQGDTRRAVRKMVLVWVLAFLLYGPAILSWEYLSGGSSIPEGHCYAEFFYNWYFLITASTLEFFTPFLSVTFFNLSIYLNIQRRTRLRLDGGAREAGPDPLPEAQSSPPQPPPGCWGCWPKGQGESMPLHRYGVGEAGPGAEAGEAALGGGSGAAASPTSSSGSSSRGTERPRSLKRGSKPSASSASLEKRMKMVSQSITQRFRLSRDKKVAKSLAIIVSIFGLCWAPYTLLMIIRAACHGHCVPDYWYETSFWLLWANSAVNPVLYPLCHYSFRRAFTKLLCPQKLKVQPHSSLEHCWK
Protocol: as §1, §2
The animals weighed 400-600 g. The brain tissue was homogenized with a solution of 50 mM Tris, pH 7.5. The final concentration of tissue in the homogenization buffer was 10% w/v. The homogenates were centrifuged at 1,000×g for 10 min. in order to remove clumps of tissue and debris. The resulting supernatants were then centrifuged at 50,000×g for 20 min. in order to sediment the membranes, which were next washed three times in homogenization buffer (50,000×g for 20 min. each). The membranes were frozen and stored at −70° C. until needed.
All compounds to be tested were dissolved in DMSO and then diluted into the binding buffer (50 mM Tris, pH 7.5) such that the final concentration was 2 μg/ml with 0.1% DMSO. Membranes were then added (400 μg of protein, 5 μg in the case of recombinant human receptor) to the reaction tubes. […] Bound ligand was separated from unbound ligand by filtration, and the amount of radioactive ligand bound to the membranes was quantitated by liquid scintillation spectrometry. […]

| pKi [1] | pKi [2] | SMILES |
| --- | --- | --- |
| 9.15 | – | Nc1cc(CN2CCC(C(=O)N3CCC(NCc4ccc(F)cc4F)CC3)CC2)ccn1 [Example 256] |
| – | 9.70 | Cc1cc(C(=O)NCc2cccnc2NC2CCN(C(=O)C3CCN(Cc4ccnc(N)c4)CC3)CC2)no1 [Example 11] |
